Data taken from patent US20130324413A1, “METHOD FOR PROMOTING PLANT GROWTH” (SUMITOMO CHEMICAL COMPANY, LIMITED, priority 2011, published 2013).

What was measured:
Type in all cases: in vivo
[1] = test system: oilseed rape (Brasicca napus); assay: Test Example 5: oilseed rape field application, percentage of green pods; details: flowable formulation, 250 g per hectare at day 253 (BBCH 65); assessed day 323 (BBCH 85); non-treated 12.75%
Source text: Seeds of oilseed rape (Brasicca napus) were sown and grown. At day 253 after the sowing, at growth stage 65, according to the Biologische Bundesanstalt, Bundessortenamt and CHemical industry (BBCH) scale, the flowable formulation prepared as described in Formulation Example 2 containing compound (1b) was applied in an amount of 250 g per hectare. A plot for the treatment measured 6 m×10 m. This plot was the present compound-treated group. A plot treated with the formulation without compound (1b) was used as the non-treated group, in which plants were cultivated in the same manner as in the present compound-treated group.
At day 323 after the sowing, when almost all the plants entered growth stage 85, according to the BBCH scale, the percentage of pods remaining green among the pods of the plants was examined and determined in both the present compound-treated and non-treated groups.

[2] = test system: oilseed rape (Brasicca napus); assay: Test Example 11: oilseed rape field application, yield of the seeds; details: flowable formulation, 250 g per hectare at day 240 (BBCH 63); evaluated day 334; non-treated 4.25 tons/hectare
Source text: Seeds of oilseed rape (Brasicca napus) were sown at 5.5 kg seeds per hectare and grown. At day 240 after the sowing, at growth stage 63, according to the Biologische Bundesanstalt, Bundessortenamt and CHemical industry (BBCH) scale, the flowable formulation prepared as described in Formulation Example 2 containing compound (1b) was applied in an amount of 250 g per hectare. A group for the treatment measured 2 m×12 m. This group was the present compound-treated group. A group treated with the formulation without compound (1b) was used as the non-treated group, in which plants were cultivated in the same manner as in the treated group.
At day 334 after the sowing, the yield of the seeds was evaluated. As a result, the yield calculated presuming 9% seed water content was 4.55 tons/hectare in the present compound-treated group, while it was 4.25 tons/hectare in the non-treated group. During the testing, no diseases were observed that affected the yield either in the present compound-treated or non-treated group.

[3] = test system: Arabidopsis thaliana (ecotype Columbia); assay: Test Example 7: Arabidopsis seedlings in medium, high-temperature stress, leaf area; details: 30 ppm in medium; high-temperature stress 45° C. 60 minutes; 8 days after; non-treated 3.4 mm^2
Experimental: In a Petri dish, a hydroponic sponge piece (1 cm×1 cm×0.2 cm) was immersed with a half concentration of Murashige-and-Skoog medium (MS culture medium: containing 2.5 mM MES, 1% sucrose and 0.1% Gamborg vitamin solution G1019 (Sigma-Aldrich)). On this sponge piece, 4 to 5 seeds of Arabidopsis thaliana (ecotype Columbia) were aseptically sown. After the low temperature treatment (at 4° C. for 2 to 4 days), the plants were grown for 6 days under the following conditions to obtain Arabidopsis seedlings: temperature, 23° C.; humidity, 45%; illuminance, 3,500 lux; day length, 16 hours. Each 0.5 ml of a half concentration of MS medium was dispensed into a 24-well plate (SUMILON MS-80240; manufactured by Sumitomo Bakelite), onto which […] of a 1,000-fold concentrated DMSO solution of compound (1b) was added to prepare medium containing compound (1b) at a concentration of 30 ppm. After thinning the Arabidopsis seedlings to 2 plants per sponge, the seedlings were transplanted in the compound (1b)-containing medium in each well of the 24-well plate, together with the sponge piece and then grown overnight. […] Each well was photographed with a digital camera and the green area in the photograph was measured using image analysis software Win ROOF (manufactured by MITANI CORPORATION), thereby quantifying the leaf areas of the plants.

[4] = test system: Corn (cultivar: DeKalb 61-69); assay: Test Example 4: field corn foliage spraying, percentage of green leaves; details: assessed 143 days after sowing (R6), non-treated 23.8%
Source text: Corn seeds (cultivar: DeKalb 61-69) were sown at 33,684 seeds per acre and grown. Each plot in the field for treatment measured 10 feet in width and 15.5 feet in length. The treatments were arranged using the Randomized Complete Block Design method with eight replications for each treatment. Groups treated with the formulation without compound (1b) were used as the non-treated groups, in which corn was cultivated in the same manner as in the present compound-treated groups. The flowable formulation prepared as described in Formulation Example 2 was applied by foliage spraying 111 days after the sowing, at developmental stage R3 of maize. The percentage of green leaves among the leaves upper to the lowest ear of corn was determined for each formulation-treated group 143 days after the sowing, at developmental stage R6 of maize. As a result, the percentages were 41.3% and 45.6% on average, respectively, in the groups treated with 100 g and 300 g per hectare of compound (1b), while the percentage was 23.8% on average in the non-treated groups.

[5] = test system: Corn (cultivar: Hughes 5813); assay: Test Example 2: corn seed treatment, amount of harvested grains; details: grown 226 days
Experimental: Corn (cultivar: Hughes 5813) seeds were separately treated with 25 μg or 125 μg of compound (1b) for each seed. The amount of the compound required for the treatment was determined by calculation assuming 4,000 grains per kg of seeds. The seeds were coated using seed treatment machine HEGE11(produced by Hans-Ulrich Hege). All the seed treatments included Maxim XL (0.167 ounces/100 pounds), Thiram 42S (2.5 ounces/pound), and Cruiser (containing 0.25 mg/seed of thiamethoxam) and CF-Clear polymer at a concentration of 0.5 ounces/pound. The treated seeds were sown and grown for 226 days, and the corn plants were harvested to obtain grains. […] During the testing, no diseases were observed that affected the yield in the present compound-treated group and the non-treated group.

Structure (SMILES): CNC(=O)C(OC)c1ccccc1COc1cc(C)ccc1C (racemic) [Compound (1b), N-methyl-2-[2-(2,5-dimethylphenoxy)methyl]phenyl-2-methoxyacetamide]
- percentage of green pods [1]: 22.25%
- yield of the seeds calculated presuming 9% seed water content [2]: 4.55 tons/hectare
- Mean leaf area of plants [3]: 12.6 mm^2
- percentage of green leaves among the leaves upper to the lowest ear (average) ([4]; foliage spraying 100 g per hectare at 111 days (R3)): 41.3%
- percentage of green leaves among the leaves upper to the lowest ear (average) ([4]; foliage spraying 300 g per hectare at 111 days (R3)): 45.6%
- increase in amount of the harvested grains as compared with the non-treated group ([5]; seeds treated with 25 μg per seed): 11%
- increase in amount of the harvested grains as compared with the non-treated group ([5]; seeds treated with 125 μg per seed): 9%
